Consider 28 compounds from ChEMBL document CHEMBL4616626, “Design, synthesis and biological evaluation of HIV-1 protease inhibitors with morpholine derivatives as P2 ligands in combination with cyclopropyl as P1' ligand” (Bioorg Med Chem Lett, 2020).

The target in the test is Human immunodeficiency virus type 1 protease (Human immunodeficiency virus 1, UniProt Q72874). As to the kind of experiment: Inhibition of HIV1 protease by FRET assay.
The term IC50 denotes the point on the concentration scale where inhibition reaches its midpoint. Turning to `C[C@@H]1CN(CC(=O)N[C@@H](Cc2ccccc2)[C@H](O)CN(C2CC2)S(=O)(=O)c2ccc(N)cc2)CCO1`, it took 1530 nM to reach half-maximal inhibition (IC50).

With `COc1ccc(S(=O)(=O)N(C[C@@H](O)[C@H](Cc2ccccc2)NC(=O)CN2CCO[C@H](C)C2)C2CC2)cc1`, the half-maximal inhibitory concentration (IC50) came out at 190 nM. Against the preceding compound, the IC50 is about 8.1-fold lower.

Turning to `O=C(CN[C@@H](Cc1ccccc1)[C@H](O)CN(C1CC1)S(=O)(=O)c1ccc([N+](=O)[O-])cc1)N1CCOCC1`, the IC50 was greater than 10000 nM.

In turn, `Nc1ccc(S(=O)(=O)N(C[C@@H](O)[C@H](Cc2ccccc2)NCC(=O)N2CCOCC2)C2CC2)cc1` came in with an IC50 of 1150 nM.

In turn, `O=S(=O)(c1ccc(C(F)(F)F)cc1)N(C[C@@H](O)[C@H](Cc1ccccc1)NCCN1CCOCC1)C1CC1` gave a half-inhibitory concentration (IC50) of 1690 nM.

For `COc1ccc(S(=O)(=O)N(C[C@@H](O)[C@H](Cc2ccccc2)NC(=O)N2CCOCC2)C2CC2)cc1`, 260 nM corresponded to half-maximal inhibition (IC50). This IC50 lies about 6.5-fold lower than the previous one.

Compound `O=C(N[C@@H](Cc1ccccc1)[C@H](O)CN(C1CC1)S(=O)(=O)c1ccc([N+](=O)[O-])cc1)OCCN1CCOCC1` displayed an IC50 of 80 nM.

Turning to `C[C@@H]1CN(CC(=O)N[C@@H](Cc2ccccc2)[C@H](O)CN(C2CC2)S(=O)(=O)c2ccc(C(F)(F)F)cc2)CCO1`, the IC50 is 2990 nM.

`COc1ccc(S(=O)(=O)N(C[C@@H](O)[C@H](Cc2ccccc2)NCC(=O)N2CCOCC2)C2CC2)cc1` displayed an IC50 of 180 nM.

As for `O=C(CN1CCOCC1)N[C@@H](Cc1ccccc1)[C@H](O)CN(C1CC1)S(=O)(=O)c1ccc([N+](=O)[O-])cc1`, the 50% inhibitory concentration (IC50) is 5430 nM. Compared with the last compound, the IC50 is about 30-fold higher.

For `C[C@H]1CN(CC(=O)N[C@@H](Cc2ccccc2)[C@H](O)CN(C2CC2)S(=O)(=O)c2ccc(C(F)(F)F)cc2)CCO1`, 400 nM corresponded to half-maximal inhibition (IC50).

`Nc1ccc(S(=O)(=O)N(C[C@@H](O)[C@H](Cc2ccccc2)NC(=O)N2CCOCC2)C2CC2)cc1`: the midpoint of inhibition, the IC50, lay at 640 nM. Compared with the last compound, the IC50 is about 1.6-fold higher.

In turn, `C[C@H]1CN(CC(=O)N[C@@H](Cc2ccccc2)[C@H](O)CN(C2CC2)S(=O)(=O)c2ccc(N)cc2)CCO1` came in with an IC50 of 1340 nM. Against the preceding compound, the IC50 is about 2.1-fold higher.

The compound `O=C(CN1CCOCC1)N[C@@H](Cc1ccccc1)[C@H](O)CN(C1CC1)S(=O)(=O)c1ccc(C(F)(F)F)cc1` registered an IC50 of 400 nM.

Consider `C[C@H]1CN(CC(=O)N[C@@H](Cc2ccccc2)[C@H](O)CN(C2CC2)S(=O)(=O)c2ccc([N+](=O)[O-])cc2)CCO1`, for which the half-maximal inhibitory concentration (IC50) worked out at 580 nM.

The compound `Nc1ccc(S(=O)(=O)N(C[C@@H](O)[C@H](Cc2ccccc2)NC(=O)OCCN2CCOCC2)C2CC2)cc1` gave an IC50 of 61 nM.

The compound `COc1ccc(S(=O)(=O)N(C[C@@H](O)[C@H](Cc2ccccc2)NC(=O)CN2CCO[C@@H](C)C2)C2CC2)cc1` returned an IC50 of 1270 nM.

Take `O=[N+]([O-])c1ccc(S(=O)(=O)N(C[C@@H](O)[C@H](Cc2ccccc2)NCCN2CCOCC2)C2CC2)cc1`: half-maximal inhibition (IC50) was put at 610 nM.

Turning to `O=C(N[C@@H](Cc1ccccc1)[C@H](O)CN(C1CC1)S(=O)(=O)c1ccc(C(F)(F)F)cc1)OCCN1CCOCC1`, it took 120 nM to reach half-maximal inhibition (IC50).

In turn, `O=C(CN[C@@H](Cc1ccccc1)[C@H](O)CN(C1CC1)S(=O)(=O)c1ccc(C(F)(F)F)cc1)N1CCOCC1` registered an IC50 of 1260 nM. This IC50 lies about 10-fold higher than the previous one.

Take `COc1ccc(S(=O)(=O)N(C[C@@H](O)[C@H](Cc2ccccc2)NCCN2CCOCC2)C2CC2)cc1`: the midpoint of inhibition, the IC50, lay at 170 nM.

As for `COc1ccc(S(=O)(=O)N(C[C@@H](O)[C@H](Cc2ccccc2)NC(=O)OCCN2CCOCC2)C2CC2)cc1`, the IC50 fell in the range of 53 to 54 nM.

For the compound `COc1ccc(S(=O)(=O)N(C[C@@H](O)[C@H](Cc2ccccc2)NC(=O)CN2CCOCC2)C2CC2)cc1`, the IC50 came out at 1040 nM.

The compound `O=C(N[C@@H](Cc1ccccc1)[C@H](O)CN(C1CC1)S(=O)(=O)c1ccc([N+](=O)[O-])cc1)N1CCOCC1` gave a half-inhibitory concentration (IC50) of 790 nM. This IC50 and that of the compound before are within 1.5-fold of each other.

On to `Nc1ccc(S(=O)(=O)N(C[C@@H](O)[C@H](Cc2ccccc2)NC(=O)CN2CCOCC2)C2CC2)cc1`, for which the half-inhibitory concentration (IC50) was greater than 10000 nM.

`O=C(N[C@@H](Cc1ccccc1)[C@H](O)CN(C1CC1)S(=O)(=O)c1ccc(C(F)(F)F)cc1)N1CCOCC1` came in with an IC50 of 47 nM.

The compound `Nc1ccc(S(=O)(=O)N(C[C@@H](O)[C@H](Cc2ccccc2)NCCN2CCOCC2)C2CC2)cc1` had an IC50 of 940 nM.

In turn, `C[C@@H]1CN(CC(=O)N[C@@H](Cc2ccccc2)[C@H](O)CN(C2CC2)S(=O)(=O)c2ccc([N+](=O)[O-])cc2)CCO1` returned a 50% inhibitory concentration (IC50) of 930 nM.
